Test results reported in US10098352B2, “Honeybee repellents and uses thereof” (Inscent, Inc., priority 2011, dated 2018).

Columns and labels:
[1] = tested on: Apis mellifera Carniolan foraging worker honeybees; assay: Choice test in free-flight box apparatus; format: in vivo; conditions: amount 0.5%; percent food-weight change vs corresponding dishes in preceding test; negative = increase in food consumption
Protocol: To determine whether living honeybees will choice to move towards a source of a candidate compound, these compounds were assayed using a choice test in a free-flight box apparatus.
All tests were done in a free-flight box apparatus. The apparatus comprises a 244 cm long×46 cm deep×30 cm high clear plastic box including two equally-sized independent testing chambers, each with 10 cm diameter air inlets that admit filtered room air, separated by a smaller central chamber with a screened air outlet to each testing chamber. Air can be pulled through the sealed box via a 10 cm diameter duct from the air outlet using an AQE Fume Fighter 500 fume extractor (BPA Air Quality Solutions, LLC, Charleston, S.C.), which removes the test odors using activated charcoal and HEPA filters. The box is housed in an environmentally controlled room with overhead illumination timed to correspond to the current ambient light cycle including 2 additional sets of lights timed to approximate crepuscular lighting conditions. The bottom of the apparatus was lined with clean absorbent paper marked with a 4×9 grid pattern, forming 12 cm×12 cm squares with marked coordinates.
Apis mellifera Carniolan foraging worker honeybees were obtained from a local apiary (typically 60 bees per shipment). Thirty honeybees were put into each testing chamber and were allowed to acclimate for 24 hours with food and water freely available.
At the beginning of each test day all food was removed from the test chamber, but water was continually available throughout all tests. For each test, approximately 0.3 g of organic, raw orange blossom honey was added to each clean small plastic weigh boat (Cole-Palmer). The honey boats were placed in small plastic culture dishes, which were distributed in the marked squares in the chambers. The positions of the dishes on the grid for a set of trials was chosen to avoid the bees' preferred resting area so that they had to find the food actively, but the same dish positions were maintained for a given set of trials. […] The honey in each boat was weighed on an analytical balance before and after the test, with the screened sample as a control for evaporative loss. The fume extractor was left off during the experimental trails, and was turned on to clear the air after the test dishes were covered and removed from the chamber at the end of each trial.
Based on the observation that bees tend to return to dishes in the same position where they have fed before, each set of trials with each group of bees began with “Pattern Identification” tests to see which dishes lose the most weight, reflecting the most feeding. Once bees were consuming an acceptable amount in 10-15 min, typically in 1-2 trials, we began a set of test compound trials. The test compound was pipetted onto pieces of filter paper placed on the dish bottom below the boat containing a fresh, weighed honey sample so that the test compound was inaccessible to the bees. We used 2 μL of a candidate compound at a concentration of 0.05-0.5%, in Triton X-100 or paraffin oil, on each of four pieces of filter paper per dish. The test-solution dishes were set at the same positions as the one or two dishes favored in the preceding Pattern Identification trial. To eliminate interference from the solvent, the other dishes without the test substance contained the same volume of the appropriate solvent on filter papers as the test solution dishes. The bees were allowed to feed for 10-15 minutes. Bee movements were recorded by a small, wide-angle digital video camcorder (HD Hero 960; GoPro, Halfmoon Bay, Calif.) placed on a tripod in front of the test chamber. The bees were given a brief rest while the honey was weighed and a second test was begun with fresh dishes, except that the test compound-containing dish or dishes were placed at whichever positions were most visited in the preceding test. […] The bees were then rested for 1-3 hours and a subsequent set of trials begun with another Pattern Identification. […]

[2] = cited from earlier work
[3] = tested on: OBP2; assay: Fluorescent-quench ligand-protein-binding assay (OBP2 binding screen); set-up: species or system Apis mellifera
Excerpt: To identify a honeybee repellent disclosed herein, candidate compounds were screened based upon the fact that 2-heptanone is an established repellent of bees. 2-heptanone is thought to mediate its behavioral response through binding to a specific odorant-binding protein called OBP2. Therefore compounds that bind OBP2 have the potential to act as odor “mimics” of 2-heptanone. By utilizing a fluorescent-quench, ligand-protein-binding assay, 30,000 compounds from the DIVERSET® library (ChemBridge Corp., San Diego, Calif.), a chemical library, were screened and over 150 candidate compounds were isolated that bind OBP2 (Table 1). Such assays are generally known in the art. See, e.g., Briand, et al., Ligand-Binding Properties and Structural Characterization of a Novel Rat Odorant-Binding Protein Variant, Eur. J. Biochem. 267(10): 3079-3089 (2000); Briand, et al., Ligand Binding and Physico-Chemical Properties of ASP2, A Recombinant Odorant-Binding Protein From Honeybee (Apis mellifera L.), Eur. J. Biochem. 268(3): 752-760 (2001); Briand, et al., Characterization of a Chemosensory Protein (ASP3c) from Honeybee (Apis mellifera L.) as a Brood Pheromone Carrier, Eur. J. Biochem. 269(18): 4586-4596 (2002), each of which is hereby incorporated by reference in its entirety.

[4] = tested on: Apis mellifera Carniolan foraging worker honeybees; assay: Proboscis extension response (PER) assay in bees conditioned to 2-heptanone; format: in vivo; conditions: for 2-heptanone positive bees testing positive to compound: final compound concentration 0.5% (TRITON X-100/water), 4 s exposure, only bees PER-positive to 2-heptanone and negative to controls counted
Protocol: To determine whether a living honeybee can recognize a candidate compound, these compounds were tested using a proboscis extension response (PER) assay using classical conditioning approaches. Proboscis extension response conditioning is a case of appetitive learning, in which bees learn to associate odor stimuli with sucrose reward in the laboratory. In this case, bees were conditioned to produce a PER to 2-heptanone as the conditioned stimulus and a sugar reward as the unconditioned stimulus. These trained bees were then exposed to an odor pulse of a candidate compound to test whether a candidate compound would also produce a PER. If the candidate compound “mimics” 2-heptanone then the honeybee will extend its proboscis.
For conditioning procedures, Apis mellifera Carniolan foraging worker honeybees were obtained from a local apiary (typically 60 bees per shipment). The honeybees were held overnight in insect cages with food and water freely available, in an environmentally controlled room on a light cycle similar to the ambient cycle at the time of the assay.
For conditioning procedures, all tests were done in an odorant delivery apparatus set inside a fume hood. The apparatus comprised a set of open-ended, horizontal, 3 cm diameter by 10 cm long plastic tubes. Each tube was designed where a honeybee could be positioned at the distal end of a tube, with the opening at the other end of the tube located proximal to an inlet of the fume hood. To deliver an odorant, room air was pumped by a diaphragm pump through a particle filter via 0.25 inch plastic tubing at approximately 0.7 m/sec. The air flow passes into the headspace above an odorant (0.5% [v/v]2-heptanone dissolved in odorless light paraffin oil) contained in a 100 mL bottle. The headspace air then passes through another plastic tube to a manifold of 4-way valves, each of which was attached near the proximal end of a plastic tube containing a bee. Each bee was exposed separately for a desired time period to the odorant by opening and closing the appropriate valve. When each valve was closed, the odor was flushed away immediately by the continuous fume hood air stream.
To train a honeybee to respond to a conditioned and unconditioned stimuli, bees were placed, without anesthesia, in individual 1.5 mL micro-centrifuge holding tubes and held overnight without access to food or water. The holding tubes containing the starved bees were placed in racks in groups of eight. One rack at a time was placed behind the odorant delivery apparatus so that each bee's head is centered at the distal end of a horizontal plastic tube. Each bee was exposed to the 2-heptanone odorant alone for four seconds, and then while being fed an 80% sucrose solution for and additional three seconds. The sucrose solution was delivered on a piece of saturated filter paper held in forceps. […] Positive and negative responses were recorded. A positive PER was scored when a bee extended its proboscis before the sucrose appeared. In a typical trial, 48 individual bees were subjected to conditioning. Six rounds of training were done before testing began, and typically a majority of the bees were successfully conditioned by the second or third round of training.
After conditioning, honeybees were tested with the candidate compounds the same day or on the following day or, most commonly, both. When held overnight, bees were fed with sucrose and kept in their holding tubes. When tested the day after training, bees were given one or more rounds of conditioning with 2-heptatone to refresh their memories. Candidate compounds stocks were made at 5% (w/v) in polyoxyethylene octyl phenyl ether (TRITON® X-100), a non-ionic detergent/surfactant, and stored at 4° C. This detergent is similar to substances used as carriers for a variety of commercial pest-control agents, can act as a solvent for both hydrophilic and hydrophobic substances, and is itself nearly odorless. […]

Structure (SMILES)	Repellence Score [1] [%]	solubility in alcohol or ether ([2]; alcohol or ether)	solubility in water ([2]; water)	OBP2 binding characteristic of compound [3]	2-heptanone positive bees testing positive to compound [4] [%]	% Positive in PER ([4]; PER score as repeated in Table 3) [%]
CCCCCC(C)=O [2-heptanone]	54.6	soluble	very slightly soluble	–	–	–
O=C1OC(c2ccccc2)=NC1=Cc1cccs1 [compound 9, 2-phenyl-4-(2-thienylmethylene)-1,3-oxazol-5(4H)-one]	43.3	–	–	Moderate (Moderate, indicates that 50% or less of the compound bound to OBP2.)	9.7	–
O=C(Nc1ccccc1C(=O)Nc1ccccc1Cl)c1ccccc1 [compound 10, 2-(benzoylamino)-N-(2-chlorophenyl)benzamide]	45.6	–	–	Moderate (Moderate, indicates that 50% or less of the compound bound to OBP2.)	4.8	–
O=C(NNC1=C(C(=O)C(F)(F)F)CCC1)c1ccc(Br)cc1 [compound 36]	56.3	–	–	Moderate (Moderate, indicates that 50% or less of the compound bound to OBP2.)	24.3	–
CC(=O)c1cc(Cl)ccc1OC(=O)c1ccc(C)cc1 [compound 40, 2-acetyl-4-chlorophenyl 4-methylbenzoate]	54.6	–	–	Moderate (Moderate, indicates that 50% or less of the compound bound to OBP2.)	34.3	30.5
